The text below walks through data of US5563172A, “Macrocyclic amide and urea immunomodulators” (Abbott Laboratories, priority 1994, dated 1996).

pIC50: −log10 of the molar value.

For the experiment, the system named is human mixed lymphocyte reaction (MLR). Briefly: human mixed lymphocyte reaction (MLR) assay, immunosuppressant activity. Type of experiment: cell-based. Particulars: Table 1. How it is done:
The immunosuppressant activity of the compounds of the present invention was determined using the human mixed lymphocyte reaction (MLR) assay described by Kino, T. et al. in Transplantation Proceedings, XIX(5):36-39,Suppl. 6 (1987).
As for `CCC1C=C(C)CC(C)CC(OC)C2OC(O)(C(=O)C(=O)N3CCCCC3C(=O)OC(C(C)=CC3CCC(OCC(=O)N4CCN(C)CC4)C(OC)C3)C(C)C(O)CC1=O)C(C)CC2OC` (centres unmarked) [Example 74], the pIC50 (in general, −log10 of the IC50, conventionally taken in molar units) is 10.22.

In turn, `CCC1C=C(C)CC(C)CC(OC)C2OC(O)(C(=O)C(=O)N3CCCCC3C(=O)OC(C(C)=CC3CCC(OCC(=O)NCC(=O)O)C(OC)C3)C(C)C(O)CC1=O)C(C)CC2OC` (centres unmarked) [Example 39] had a pIC50 of 6.76.

With `CCC1C=C(C)CC(C)CC(OC)C2OC(O)(C(=O)C(=O)N3CCCCC3C(=O)OC(C(C)=CC3CCC(OCC(=O)Nc4cccnc4)C(OC)C3)C(C)C(O)CC1=O)C(C)CC2OC` (centres unmarked) [Example 57], the pIC50 was 10.00. `CCOC(=O)COC1CCC(C=C(C)C2OC(=O)C3CCCCN3C(=O)C(=O)C3(O)OC(C(OC)CC(C)CC(C)=CC(CC)C(=O)CC(O)C2C)C(OC)CC3C)CC1OC` (centres unmarked) [Example 1] had a pIC50 of 9.05. As for `CCC1C=C(C)CC(C)CC(OC)C2OC(O)(C(=O)C(=O)N3CCCCC3C(=O)OC(C(C)=CC3CCC(OCC(=O)Nc4ccncc4)C(OC)C3)C(C)C(O)CC1=O)C(C)CC2OC` (centres unmarked) [Example 58], the negative logarithm of the IC50 (pIC50) is 9.82. As for `CCC1C=C(C)CC(C)CC(OC)C2OC(O)(C(=O)C(=O)N3CCCCC3C(=O)OC(C(C)=CC3CCC(OCC(=O)NCCCO)C(OC)C3)C(C)C(O)CC1=O)C(C)CC2OC` (centres unmarked) [Example 31], the pIC50 was 8.96. Then `CCC1C=C(C)CC(C)CC(OC)C2OC(O)(C(=O)C(=O)N3CCCCC3C(=O)OC(C(C)=CC3CCC(OCC(=O)Nc4ccccn4)C(OC)C3)C(C)C(O)CC1=O)C(C)CC2OC` (centres unmarked) [Example 59], with 10.30; and `CCC1C=C(C)CC(C)CC(OC)C2OC(O)(C(=O)C(=O)N3CCCCC3C(=O)OC(C(C)=CC3CCC(OCC(=O)NN4CCOCC4)C(OC)C3)C(C)C(O)CC1=O)C(C)CC2OC` (centres unmarked) [Example 51], with 9.52; and `CCC1C=C(C)CC(C)CC(OC)C2OC(O)(C(=O)C(=O)N3CCCCC3C(=O)OC(C(C)=CC3CCC(OCNC(=O)Nc4ccccc4)C(OC)C3)C(C)C(O)CC1=O)C(C)CC2OC` (centres unmarked) [Example 112], with 10.00. Consider `CCC1C=C(C)CC(C)CC(OC)C2OC(O)(C(=O)C(=O)N3CCCCC3C(=O)OC(C(C)=CC3CCC(OCC(=O)N(C)CCc4ccccc4)C(OC)C3)C(C)C(O)CC1=O)C(C)CC2OC` (centres unmarked) [Example 83], for which the pIC50 was 9.40. Consider `CCC1C=C(C)CC(C)CC(OC)C2OC(O)(C(=O)C(=O)N3CCCCC3C(=O)OC(C(C)=CC3CCC(OCC(=O)Nc4ccccc4)C(OC)C3)C(C)C(O)CC1=O)C(C)CC2OC` (centres unmarked) [Example 85], for which the negative-log IC50 (pIC50) is 9.30. Consider `CCC1C=C(C)CC(C)CC(OC)C2OC(O)(C(=O)C(=O)N3CCCCC3C(=O)OC(C(C)=CC3CCC(OCC(=O)NCCCN(C)C)C(OC)C3)C(C)C(O)CC1=O)C(C)CC2OC` (centres unmarked) [Example 89], for which the negative logarithm of the IC50 (pIC50) is 9.30.

Molecule `CCC1C=C(C)CC(C)CC(OC)C2OC(O)(C(=O)C(=O)N3CCCCC3C(=O)OC(C(C)=CC3CCC(OCC(=O)NCCCN4CCOCC4)C(OC)C3)C(C)C(O)CC1=O)C(C)CC2OC` (centres unmarked) [Example 87] showed a pIC50 of 8.96. On to `CCC1C=C(C)CC(C)CC(OC)C2OC(O)(C(=O)C(=O)N3CCCCC3C(=O)OC(C(C)=CC3CCC(OCC(=O)Nc4cccc(O)c4)C(OC)C3)C(C)C(O)CC1=O)C(C)CC2OC` (centres unmarked) [Example 73], for which the pIC50 was 10.40. `CCC1C=C(C)CC(C)CC(OC)C2OC(O)(C(=O)C(=O)N3CCCCC3C(=O)OC(C(C)=CC3CCC(OCC(=O)NNC(=O)c4ccncc4)C(OC)C3)C(C)C(O)CC1=O)C(C)CC2OC` (centres unmarked) [Example 71] showed a negative-log IC50 (pIC50) of 10.00. For the molecule `CCC1C=C(C)CC(C)CC(OC)C2OC(O)(C(=O)C(=O)N3CCCCC3C(=O)OC(C(C)=CC3CCC(OCC(=O)Nc4ccc(F)cc4)C(OC)C3)C(C)C(O)CC1=O)C(C)CC2OC` (centres unmarked) [Example 54], the pIC50 is 10.70.

For `CCC1C=C(C)CC(C)CC(OC)C2OC(O)(C(=O)C(=O)N3CCCCC3C(=O)OC(C(C)=CC3CCC(OCNC(=O)N4CCOCC4)C(OC)C3)C(C)C(O)CC1=O)C(C)CC2OC` (centres unmarked) [Example 111], the pIC50 is 8.74. `CCC1C=C(C)CC(C)CC(OC)C2OC(O)(C(=O)C(=O)N3CCCCC3C(=O)OC(C(C)=CC3CCC(OCC(N)=O)C(OC)C3)C(C)C(O)CC1=O)C(C)CC2OC` (centres unmarked) [Example 6]: the negative logarithm of the IC50 (pIC50) is 10.00. The molecule `CCC1C=C(C)CC(C)CC(OC)C2OC(O)(C(=O)C(=O)N3CCCCC3C(=O)OC(C(C)=CC3CCC(OCC(=O)NCCN(C)C)C(OC)C3)C(C)C(O)CC1=O)C(C)CC2OC` (centres unmarked) [Example 88] showed a pIC50 of 10.00. With `CCC1C=C(C)CC(C)CC(OC)C2OC(O)(C(=O)C(=O)N3CCCCC3C(=O)OC(C(C)=CC3CCC(OCC(=O)N4CCOCC4)C(OC)C3)C(C)C(O)CC1=O)C(C)CC2OC` (centres unmarked) [Example 29] the figure was 9.15; with `CCC1C=C(C)CC(C)CC(OC)C2OC(O)(C(=O)C(=O)N3CCCCC3C(=O)OC(C(C)=CC3CCC(OCC(=O)Nc4cccc(F)c4)C(OC)C3)C(C)C(O)CC1=O)C(C)CC2OC` (centres unmarked) [Example 72], 10.10; with `CCC1C=C(C)CC(C)CC(OC)C2OC(O)(C(=O)C(=O)N3CCCCC3C(=O)OC(C(C)=CC3CCC(OCC(=O)NCc4ccccc4)C(OC)C3)C(C)C(O)CC1=O)C(C)CC2OC` (centres unmarked) [Example 4], 9.30.

In turn, `CCC1C=C(C)CC(C)CC(OC)C2OC(O)(C(=O)C(=O)N3CCCCC3C(=O)OC(C(C)=CC3CCC(OCC(=O)Nc4ccc(C(F)(F)F)cc4)C(OC)C3)C(C)C(O)CC1=O)C(C)CC2OC` (centres unmarked) [Example 53] gave a pIC50 of 9.70.

`CCC1C=C(C)CC(C)CC(OC)C2OC(O)(C(=O)C(=O)N3CCCCC3C(=O)OC(C(C)=CC3CCC(OCC(=O)OCc4ccccc4)C(OC)C3)C(C)C(O)CC1=O)C(C)CC2OC` (centres unmarked) [Example 2]: the negative-log IC50 (pIC50) was 8.12. As for `CCC1C=C(C)CC(C)CC(OC)C2OC(O)(C(=O)C(=O)N3CCCCC3C(=O)OC(C(C)=CC3CCC(OCC(=O)NCCc4ccccc4)C(OC)C3)C(C)C(O)CC1=O)C(C)CC2OC` (centres unmarked) [Example 82], the negative logarithm of the IC50 (pIC50) was 9.52. `CCC1C=C(C)CC(C)CC(OC)C2OC(O)(C(=O)C(=O)N3CCCCC3C(=O)OC(C(C)=CC3CCC(OCC(=O)O)C(OC)C3)C(C)C(O)CC1=O)C(C)CC2OC` (centres unmarked) [Example 3] showed a negative-log IC50 (pIC50) of 6.85.
